Reference: ChEMBL document CHEMBL1201862, “PubChem BioAssay data set” (2004)
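Briefly, cells in 96-well plates were exposed to five compound concentrations for 48 h, and endpoints were estimated by linear interpolation. Abbreviation: GI50, concentration required for 50% inhibition of growth.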 The source made the active and inactive calls. No stated cut-off is given here; in the data, active = GI50 up to about 1.1 µM and inactive = higher.

Assays:
Experiment in all cases: growth of human tumour cells (NCI), 48 h
IGROV-1 = test system: IGROV-1
HOP-62 = test system: HOP-62
MDA-MB-231 = test system: MDA-MB-231
MCF7 = test system: MCF7
SF-268 = test system: SF-268
SF-539 = test system: SF-539
UACC-62 = test system: UACC-62
OVCAR-3 = test system: OVCAR-3
RXF 393 = test system: RXF 393
ACHN = test system: ACHN
HCT-116 = test system: HCT-116
HOP-92 = test system: HOP-92
CAKI-1 = test system: CAKI-1
U-251 = test system: U-251
PC-3 = test system: PC-3
OVCAR-4 = test system: OVCAR-4
MDA-MB-435 = test system: MDA-MB-435
NCI-H460 = test system: NCI-H460
RPMI-8226 = test system: RPMI-8226
SK-MEL-28 = test system: SK-MEL-28

With `CCN(CC)c1ccc2cc(-c3nc4ccccc4n3C)c(=O)oc2c1` the GI50 (IGROV-1) was 0.485 µM (active), the GI50 (HOP-62) was 0.411 µM (active) and the GI50 (MDA-MB-231) was 0.889 µM (active). For the same compound, the GI50 (MCF7) was 0.667 µM (active), the GI50 (SF-268) was 2.05 µM (inactive) and the GI50 (SF-539) was 0.222 µM (active). For the same compound, the GI50 (UACC-62) was 0.231 µM (active), the GI50 (OVCAR-3) was 0.24 µM (active) and the GI50 (RXF 393) was 1.74 µM (inactive). For the same compound, the GI50 (ACHN) was 2.79 µM (inactive), the GI50 (HCT-116) was 0.204 µM (active) and the GI50 (HOP-92) was 0.873 µM (active). For the same compound, the GI50 (CAKI-1) was 0.288 µM (active), the GI50 (U-251) was 0.352 µM (active) and the GI50 (PC-3) was 0.2 µM (active). For the same compound, the GI50 (OVCAR-4) was > 100 µM (inactive), the GI50 (MDA-MB-435) was 0.0369 µM (active) and the GI50 (NCI-H460) was 0.286 µM (active). The GI50 (RPMI-8226) was 0.33 µM (active).
With `OC1[C@@H]2[C@@H](O)[C@H](O)[C@@H](O)N2C[C@@H]1O` (stereo partly drawn) the GI50 (IGROV-1) was > 100 µM (inactive), the GI50 (HOP-62) was > 100 µM (inactive) and the GI50 (MDA-MB-231) was > 100 µM (inactive). For the same compound, the GI50 (MCF7) was > 100 µM (inactive), the GI50 (SF-268) was > 100 µM (inactive) and the GI50 (SF-539) was > 100 µM (inactive). The GI50 (UACC-62) was > 100 µM (inactive), the GI50 (OVCAR-3) was > 100 µM (inactive) and the GI50 (RXF 393) was > 100 µM (inactive). The GI50 (ACHN) was > 100 µM (inactive), the GI50 (HCT-116) was > 100 µM (inactive) and the GI50 (HOP-92) was > 100 µM (inactive). For the same compound, the GI50 (CAKI-1) was > 100 µM (inactive), the GI50 (U-251) was > 100 µM (inactive) and the GI50 (PC-3) was > 100 µM (inactive). For the same compound, the GI50 (OVCAR-4) was > 100 µM (inactive), the GI50 (SK-MEL-28) was > 100 µM (inactive) and the GI50 (MDA-MB-435) was > 100 µM (inactive). For the same compound, the GI50 (NCI-H460) was > 100 µM (inactive).
In the case of `CCOC1=NC(O)c2cccn2-c2sccc21` (stereo not drawn), the GI50 (HOP-62) is reported as > 100 µM (inactive), the GI50 (MDA-MB-231) is reported as > 100 µM (inactive) and the GI50 (MCF7) is reported as > 100 µM (inactive). The GI50 (SF-268) was > 100 µM (inactive), the GI50 (SF-539) was > 100 µM (inactive) and the GI50 (UACC-62) was > 100 µM (inactive). For the same compound, the GI50 (OVCAR-3) was > 100 µM (inactive), the GI50 (RXF 393) was > 100 µM (inactive) and the GI50 (ACHN) was > 100 µM (inactive). For the same compound, the GI50 (HCT-116) was > 100 µM (inactive), the GI50 (HOP-92) was > 100 µM (inactive) and the GI50 (CAKI-1) was > 100 µM (inactive). The GI50 (U-251) was > 100 µM (inactive), the GI50 (PC-3) was > 100 µM (inactive) and the GI50 (OVCAR-4) was > 100 µM (inactive). The GI50 (SK-MEL-28) was > 100 µM (inactive), the GI50 (MDA-MB-435) was > 100 µM (inactive) and the GI50 (NCI-H460) was > 100 µM (inactive). The GI50 (RPMI-8226) was 26.7 µM (inactive).
`CC1CC[C@@H](C(C)C)[C@H](Oc2nnc(C3OC(CO)C(O)C3O)o2)C1` (stereo partly drawn) was tested, and the GI50 (HOP-62) was > 100 µM (inactive), the GI50 (MDA-MB-231) was > 100 µM (inactive) and the GI50 (MCF7) was > 100 µM (inactive). The GI50 (SF-268) was > 100 µM (inactive), the GI50 (SF-539) was > 100 µM (inactive) and the GI50 (UACC-62) was > 100 µM (inactive). The GI50 (OVCAR-3) was > 100 µM (inactive), the GI50 (RXF 393) was > 100 µM (inactive) and the GI50 (ACHN) was > 100 µM (inactive). For the same compound, the GI50 (HCT-116) was > 100 µM (inactive), the GI50 (HOP-92) was > 100 µM (inactive) and the GI50 (CAKI-1) was > 100 µM (inactive). For the same compound, the GI50 (U-251) was > 100 µM (inactive), the GI50 (PC-3) was > 100 µM (inactive) and the GI50 (OVCAR-4) was > 100 µM (inactive). The GI50 (MDA-MB-435) was > 100 µM (inactive), the GI50 (NCI-H460) was > 100 µM (inactive) and the GI50 (RPMI-8226) was > 100 µM (inactive).
For `COC(=O)C(=O)c1cc2ccccc2n1S(=O)(=O)c1ccccc1`, the GI50 (IGROV-1) was > 100 µM (inactive), the GI50 (HOP-62) was > 100 µM (inactive) and the GI50 (MDA-MB-231) was > 100 µM (inactive). For the same compound, the GI50 (MCF7) was > 100 µM (inactive), the GI50 (SF-268) was > 100 µM (inactive) and the GI50 (SF-539) was > 100 µM (inactive). For the same compound, the GI50 (UACC-62) was > 100 µM (inactive), the GI50 (OVCAR-3) was > 100 µM (inactive) and the GI50 (RXF 393) was > 100 µM (inactive). The GI50 (ACHN) was > 100 µM (inactive), the GI50 (HCT-116) was > 100 µM (inactive) and the GI50 (HOP-92) was > 100 µM (inactive). For the same compound, the GI50 (CAKI-1) was > 100 µM (inactive), the GI50 (U-251) was > 100 µM (inactive) and the GI50 (PC-3) was > 100 µM (inactive). For the same compound, the GI50 (OVCAR-4) was > 100 µM (inactive), the GI50 (SK-MEL-28) was > 100 µM (inactive) and the GI50 (MDA-MB-435) was > 100 µM (inactive). The GI50 (NCI-H460) was > 100 µM (inactive).
`O=[N+]([O-])c1ccc(C2=NOC(c3ccc(Cl)cc3)N2C23CC4CC(CC(C4)C2)C3)cc1` (stereo not drawn) was tested, and the GI50 (IGROV-1) was > 100 µM (inactive), the GI50 (HOP-62) was > 100 µM (inactive) and the GI50 (MDA-MB-231) was > 100 µM (inactive). For the same compound, the GI50 (MCF7) was 40.6 µM (inactive), the GI50 (SF-268) was > 100 µM (inactive) and the GI50 (SF-539) was > 100 µM (inactive). The GI50 (UACC-62) was > 100 µM (inactive), the GI50 (OVCAR-3) was > 100 µM (inactive) and the GI50 (RXF 393) was 1.86 µM (inactive). For the same compound, the GI50 (ACHN) was 9.71 µM (inactive), the GI50 (HCT-116) was 28.1 µM (inactive) and the GI50 (HOP-92) was 25.5 µM (inactive). For the same compound, the GI50 (CAKI-1) was 16.6 µM (inactive), the GI50 (U-251) was > 100 µM (inactive) and the GI50 (PC-3) was > 100 µM (inactive). For the same compound, the GI50 (OVCAR-4) was > 100 µM (inactive), the GI50 (SK-MEL-28) was > 100 µM (inactive) and the GI50 (MDA-MB-435) was > 100 µM (inactive). The GI50 (NCI-H460) was > 100 µM (inactive) and the GI50 (RPMI-8226) was 15.5 µM (inactive).
`C/C(=C/CNc1ncnc2c1ncn2CCC(=O)O)CO` was tested, and the GI50 (IGROV-1) was > 100 µM (inactive), the GI50 (HOP-62) was > 100 µM (inactive) and the GI50 (MDA-MB-231) was > 100 µM (inactive). For the same compound, the GI50 (MCF7) was > 100 µM (inactive), the GI50 (SF-268) was > 100 µM (inactive) and the GI50 (SF-539) was > 100 µM (inactive). For the same compound, the GI50 (UACC-62) was > 100 µM (inactive), the GI50 (OVCAR-3) was > 100 µM (inactive) and the GI50 (RXF 393) was > 100 µM (inactive). The GI50 (ACHN) was > 100 µM (inactive), the GI50 (HCT-116) was > 100 µM (inactive) and the GI50 (HOP-92) was > 100 µM (inactive). The GI50 (CAKI-1) was > 100 µM (inactive), the GI50 (PC-3) was > 100 µM (inactive) and the GI50 (OVCAR-4) was > 100 µM (inactive). The GI50 (SK-MEL-28) was > 100 µM (inactive), the GI50 (MDA-MB-435) was > 100 µM (inactive) and the GI50 (NCI-H460) was > 100 µM (inactive). The GI50 (RPMI-8226) was > 100 µM (inactive).
